Values of other authors, collected in US20110144117A1, “Pharmaceutical Dosage Form Containing Tetrahydrobiopterin” (OrPha Swiss GmbH, priority 2008, published 2011).

Legend:
[1] = test system: patient with a dihydrobiopterin deficiency; conditions: single dose, patient with dihydrobiopterin deficiency (Niederwieser et al.)
[2] = in pure water
[3] = test system: patients exhibiting mutations in the PAH gene; conditions: dietary supplementation, patients with mutations in the PAH gene (Kure et al.)

solubility [2] [g/100 g H2O]	Structure (SMILES)	symptoms of hyperphenylalaninemia [1]	phenylalanine blood plasma concentration [3]
0.17	C[C@H](O)C(=O)C1=Nc2c(nc(N)[nH]c2=O)NC1 [L-sepiapterin]	transiently disappeared	
	CC(O)C(O)C1CNc2nc(N)[nH]c(=O)c2N1 (stereo not drawn) [tetrahydrobiopterin, 5,6,7,8-tetrahydro-biopterin]		reduces
